Assays:
[1] = test system: collagen genes COL1A1 and COL1A2 in skin dermis; test: Compound Screening on Skin Dermis: collagen gene expression (microarray) after topical treatment; format: in vivo, human; details: dorsal forearm twice daily, four weeks, vs vehicle, retinol at 0.2%, Pal-KTTKS at 100 ppm, p-value in brackets in the cell
Excerpt: To screen compounds, 30 to 40 female subjects with Fitzpatrick skin types I-III, aged 60-70. At Baseline, each subject was assigned to test each treatment. The products were applied to the dorsal forearm twice daily. Topical treatment with a minimally efficacious moisturizer was used as the vehicle for each test compound and as the negative control.
After four weeks of treatment, one 4-mm punch biopsy was taken from each treated site. The dermis was separated and snap-frozen in liquid nitrogen and stored at −80° C. until assayed. The frozen tissue was then processed for gene expression analysis. To determine gene expression levels, RNA was extracted, labeled with biotin, hybridized and analyzed using Affymetrix GeneTitan® U219 microarray plates according to the manufacturer's instructions.
For genomics analysis, microarray sample quality was assessed using principal components analysis and MA-plots. Treatment to negative control comparisons for the microarray data were assessed using ANOVA models fitted separately for each probe set. ANOVA model hypothesis tests were evaluated using the Empirical Bayes method available in the limma R package. A p-value cutoff of 0.05 or less was consider statistically significant.

[2] = test system: Primary Human Gingival Fibroblasts (HGF); test: Test 1: In-Vitro Human Gingival Fibroblasts Soluble Collagen Assay (Sircol); format: cell-based; details: for increase in collagen productivity vs. base control: Table 7 data, difference to base control
Protocol: Stage 1: Culturing Primary Human Gingival Fibroblasts (“HGF”): Primary Human Gingival Fibroblasts (“HGF”) were collected from tooth extraction patients and washed with 5 mL of PBS (phosphate buffered saline). The tissues were chopped into small pieces and placed into 15 mL centrifuge tube. The samples were digested with equal amounts of 1 mL 8% dispase and 1 mL 6% collagenase for 1 hr at 37° C., during which time the samples need to be shaken every 15 minutes. Once the digestion process was complete, the tube was centrifuged at 1100 r.p.m. for 6 minutes at room temperature. After centrifugation, a pellet of cells was formed in the bottom of the tube separating them from the supernatant solution. Then the supernatant was discarded and the cell pellet was suspended in 3 mL of fresh Minimum Essential Medium (“MEM”, available from Thermo Fisher) culture medium then transferred to a petri dish. The petri dish with cells were placed in the incubator at 37° C. with 5% CO2 for about 10 days. The petri dish was checked for changes in medium color every two days. Fresh culture medium was replaced if changes in medium color occurred.
Stage 2: Treatment with Compositions: Sub-Culturing Human Gingival Fibroblasts: When there was 80-90% cell monolayer coverage of the petri dish, the present culture medium was removed and washed with 5 mL of PBS. 1 mL 0.25% trypsin-EDTA solution was added and the cells sat for about 1-2 minutes at 37° C. until the cells were visibly round-shaped. It was occasionally necessary to tap the petri dish to remove any sticky cells from the petri dish surface. At least 1 mL of fresh MEM culture medium was added to inactivate the trypsin and the cells are collected into a 15 mL centrifuge tube. The tube was then centrifuged at 1100 r.p.m. for 6 minutes at room temperature. The supernatant was discarded and cell pellet is re-suspend-ed in 4 mL of fresh MEM culture medium in the same centrifuge tube. Petri dishes were each placed with 1 mL cell suspension and 9 mL fresh MEM culture medium in the incubator at 37° C. with 5% CO2 for about 3-5 days until 80-90% cell monolayer coverage on the petri dishes was observed.
When there was 80-90% cell monolayer coverage on the petri dishes, cells were re-suspended in 6 mL of fresh MEM culture medium. 1 mL cell suspension and 1 mL fresh MEM culture medium were respectively added into each well of a 6-well plate. The cells were further washed with 2 mL PBS to remove any suspended cells until no suspended cells are visible. […] Cells were maintained in the incubator at 37° C. with 5% CO2 for 72 hours.
Stage 3 Soluble Collagen Assay: Soluble collagen (types I to V) levels were measured by Sircol collagen assay kit (available from Biocolor, UK). After treatment, cells were washed two times with chilled PBS and homogenized with 6M urea. The cell homogenates were centrifuged at 15,000 r.p.m. for 15 min. 100 μL of the supernatant was mixed with 1 mL of Sircol Dye Reagent for 30 minutes. During this time period, a collagen-dye complex formed and precipitated out from the soluble unbound dye. The tubes were transferred to a microcentrifuge and spun at 12,000 r.p.m. for 10 minutes. The tubes were carefully inverted and drained. 750 μL ice-cold Acid-Salt Wash Reagent was gently added to the collagen-dye pellet to remove unbound dye from the surface of the pellet and the inside surface of the microcentrifuge tube. The tube was then centrifuged at 12,000 r.p.m. for 10 minutes. The supernatant was drained into a waste container and any fluid from the lip of the tubes was removed using cotton wool buds. 250 μL of Alkali Reagent was added to each tube to fully release the collagen bound dye. 200 μL of each sample was transferred to individual wells of a 96 micro well plate, keeping a record map of the contents of each well from A1 to H12.

[3] = Table 5, 1% composition in culture medium, 72 hours

| Molecule | COL1A1 LFC (Log base 2 of the average Fold Change) [1] | COL1A2 LFC (Log base 2 of the average Fold Change) [1] | COL1A1 LFC (Log base 2 of the average Fold Change) ([1]; listed as retinol) | COL1A2 LFC (Log base 2 of the average Fold Change) ([1]; listed as retinol) | increase in collagen productivity vs. base control [2] | Collagen Productivity (Collagen/Cell) [2, 3] | Total Cell Count Cell [2, 3] | Total Collagen ([2]; Table 5, retinoids at 20 ppm in composition, 1% composition in culture medium, 72 hours) [ug/100 ul] | Collagen Productivity (Collagen/Cell) ([2]; Table 6, 1:100 dilution) | Total Cell Count Cell ([2]; Table 6, 1:100 dilution) | Collagen Productivity ([2]; Table 7, 1:100 dilution) [ug per 10^5 cells/100 ul] | Total Cell Count Cell ([2]; Table 7, 1:100 dilution) | Total Collagen ([2]; Table 7, 1:100 dilution) [ug/100 ul] | Collagen Productivity (Collagen/Cell) ([2]; Table 9, 1:50 dilution) | Total Cell Count Cell ([2]; Table 9, 1:50 dilution) | Total Collagen ([2]; Table 9, 1:50 dilution) [ug/100 ul] |
| --- | --- | --- | --- | --- | --- | --- | --- | --- | --- | --- | --- | --- | --- | --- | --- | --- |
| CC1=C(/C=C/C(C)=C/C=C/C(C)=C/CO)C(C)(C)CCC1 [Retinol, retinol] | −0.10 (0.93) | −0.022 (0.88) | did not demonstrate significant regulation | did not demonstrate significant regulation | 0.30 |  |  |  |  |  |  |  |  |  |  |  |
| TGF-B |  |  |  |  |  | 5.17 | 2.60 ×10^5 | 13.44 | 4.86 | 2.72 ×10^5 | 4.86 | 2.72 ×10^5 | 13.24 | 5.17 | 2.60 ×10^5 | 13.44 |
| palmitoyl-lys-thr-thr-lys-ser [Pal-KTTKS] |  |  |  |  | 0.24 |  |  |  |  |  |  |  |  |  |  |  |

Source: US20220401343A1, “ORAL CARE COMPOSITIONS FOR GUM HEALTH” (The Procter & Gamble Company, priority 2020, published 2022)
